Reference: patent publication EP4768018A1, “TOPICAL GEL FOR JAK INHIBITOR AND USE THEREOF” (Prime Gene Therapeutics Co., Ltd., priority 2023, dated 2025)
In brackets after ≈: the same amount, converted by molar mass.

Legend:
Assay type in all cases: physicochemical
[1] = Storage stability of Crystal Form III (NMR)
Procedure: Add 15 mg of 2-{3-[3-amino-4-(7H-pyrrolo[2,3-d]pyrimidin-4-yl)-1H-pyrazol-1-yl]-1-(isopropylsulfonyl)azetidin-3-yl}acetonitrile to 3 mL of dioxane, heat to 40°C to dissolve and obtain a clear solution, filter, and allow the solution to crystallize by evaporation at 40°C to obtain Crystal Form III.

[2] = Long-term (24 months) stability study of crystal forms; details: for stability study result in words: 24 months
Procedure: In accordance with the stability study guidelines issued by the China's National Medical Products Administration (NMPA), stability studies were conducted on Crystal Forms I, IIa, and IIb. Samples were packaged in pharmaceutical low-density polyethylene bags, and long-term stability (24 months) was evaluated.

[3] = Crystal form conversion (room temperature; in the gel formulation, XRPD)
Procedure: Crystal Form IIa converts to Crystal Form IIb within 1 hour at room temperature (58.6% RH). During the preparation of topical gel formulation, Crystal Form I and Crystal Form IIb were respectively used as active pharmaceutical ingredients.

[4] = Solubility of crystal forms in 20% propylene glycol at 32°C
Procedure: (§1) Solubility Study of Various Crystal Forms
Solubility in 20% Propylene Glycol at 32°C (µg/mL)

[5] = Solubility of crystal forms at different pH (37°C, 24 h)
Procedure: as §1
Solubility Measurement Results (37°C, 24 h)

## CC(C)S(=O)(=O)N1CC(CC#N)(n2cc(-c3ncnc4[nH]ccc34)c(N)n2)C1 [Crystal Form III, 2-{3-[3-amino-4-(7H-pyrrolo[2,3-d]pyrimidin-4-yl)-1H-pyrazol-1-yl]-1-(isopropylsulfonyl)azetidin-3-yl}acetonitrile Crystal Form III]
[1]; after storage, NMR
  impurity formation: approximately 10%
[1]; in words
  stability: poor stability

## CC(C)S(=O)(=O)N1CC(CC#N)(n2cc(-c3ncnc4[nH]ccc34)c(N)n2)C1 [Crystal Form IIa, 2-{3-[3-amino-4-(7H-pyrrolo[2,3-d]pyrimidin-4-yl)-1H-pyrazol-1-yl]-1-(isopropylsulfonyl)azetidin-3-yl}acetonitrile Crystal Form IIa]
[2]; 0 month
  Appearance: Off-white powder
  Content: 99.8%
  Crystal Form: IIa
  Loss on Drying: 0.06%
  Related Substances Max Unknown Single Impurity: 0.06%
  Related Substances Total Impurity: 0.28%
[2]; 3 month
  Appearance: Off-white powder
  Crystal Form: IIb
  Loss on Drying: 0.18%
  Related Substances Max Unknown Single Impurity: 0.08%
  Related Substances Total Impurity: 0.28%
[2]; 3 month, 131040 min
  Content: 97.6%
[2]; 6 month
  Appearance: Off-white powder
  Crystal Form: IIb
  Loss on Drying: 0.19%
  Related Substances Max Unknown Single Impurity: 0.11%
  Related Substances Total Impurity: 0.27%
[2]; 6 month, 263520 min
  Content: 97.8%
[2]; 9 month
  Appearance: Off-white powder
  Crystal Form: IIb
  Loss on Drying: 0.24%
  Related Substances Max Unknown Single Impurity: 0.06%
  Related Substances Total Impurity: 0.24%
[2]; 9 month, 394560 min
  Content: 97.9%
[2]; 12 month
  Appearance: Off-white powder
  Crystal Form: IIb
  Loss on Drying: 0.20%
  Related Substances Max Unknown Single Impurity: 0.09%
  Related Substances Total Impurity: 0.22%
[2]; 12 month, 525600 min
  Content: 97.8%
[2]; 18 month
  Appearance: Off-white powder
  Crystal Form: IIb
  Loss on Drying: 0.16%
  Related Substances Max Unknown Single Impurity: 0.07%
  Related Substances Total Impurity: 0.26%
[2]; 18 month, 789120 min
  Content: 98.0%
[2]; 24 month
  Appearance: Off-white powder
  Crystal Form: IIb
  Loss on Drying: 0.25%
  Related Substances Max Unknown Single Impurity: 0.08%
  Related Substances Total Impurity: 0.29%
[2]; 24 month, 1.0512e+06 min
  Content: 97.8%
[2]
  stability study result in words: gradually absorbs moisture during storage and converts to Crystal Form IIb
[3]; room temperature (58.6% RH)
  time of conversion to Crystal Form IIb: ≤ 1 h

## CC(C)S(=O)(=O)N1CC(CC#N)(n2cc(-c3ncnc4[nH]ccc34)c(N)n2)C1 [Crystal Form IIb, 2-{3-[3-amino-4-(7H-pyrrolo[2,3-d]pyrimidin-4-yl)-1H-pyrazol-1-yl]-1-(isopropylsulfonyl)azetidin-3-yl}acetonitrile Crystal Form IIb]
[4]; 10 min
  Solubility in 20% Propylene Glycol at 32°C: 6.1 µg/mL (≈ 15.2 µM)
[4]; 30 min
  Solubility in 20% Propylene Glycol at 32°C: 9.5 µg/mL (≈ 23.7 µM)
[4]; 1 h, 60 min
  Solubility in 20% Propylene Glycol at 32°C: 10.8 µg/mL (≈ 27 µM)
[4]; 2 h, 120 min
  Solubility in 20% Propylene Glycol at 32°C: 11.2 µg/mL (≈ 28 µM)
[4]; 18 h, 1080 min
  Solubility in 20% Propylene Glycol at 32°C: 13.3 µg/mL (≈ 33.2 µM)
[5]; pH 1.0, 1440 min
  Solubility Conc.: 149.9 µg/mL (≈ 374 µM)
[5]; pH 2.0, 1440 min
  Solubility Conc.: 17.4 µg/mL (≈ 43.4 µM)
[5]; pH 3.8, 1440 min
  Solubility Conc.: 0.9 µg/mL (≈ 2.25 µM)
[5]; pH 4.5, 1440 min
  Solubility Conc.: 0.7 µg/mL (≈ 1.75 µM)
[5]; pH 5.5, 1440 min
  Solubility Conc.: 0.5 µg/mL (≈ 1.25 µM)
[5]; pH 6.8, 1440 min
  Solubility Conc.: 0.6 µg/mL (≈ 1.5 µM)
[5]; pH 7.0, 1440 min
  Solubility Conc.: 0.8 µg/mL (≈ 2 µM)
[5]; pH 8.0, 1440 min
  Solubility Conc.: 0.7 µg/mL (≈ 1.75 µM)
[2]; 0 month
  Appearance: Off-white powder
  Content: 99.7%
  Crystal Form: IIb
  Loss on Drying: 0.36%
  Related Substances Max Unknown Single Impurity: 0.07%
  Related Substances Total Impurity: 0.38%
[2]; 3 month
  Appearance: Off-white powder
  Crystal Form: IIb
  Loss on Drying: 0.36%
  Related Substances Max Unknown Single Impurity: 0.08%
  Related Substances Total Impurity: 0.38%
[2]; 3 month, 131040 min
  Content: 99.7%
[2]; 6 month
  Appearance: Off-white powder
  Crystal Form: IIb
  Loss on Drying: 0.39%
  Related Substances Max Unknown Single Impurity: 0.08%
  Related Substances Total Impurity: 0.37%
[2]; 6 month, 263520 min
  Content: 99.6%
[2]; 9 month
  Appearance: Off-white powder
  Crystal Form: IIb
  Loss on Drying: 0.34%
  Related Substances Max Unknown Single Impurity: 0.08%
  Related Substances Total Impurity: 0.38%
[2]; 9 month, 394560 min
  Content: 99.5%
[2]; 12 month
  Appearance: Off-white powder
  Crystal Form: IIb
  Loss on Drying: 0.30%
  Related Substances Max Unknown Single Impurity: 0.07%
  Related Substances Total Impurity: 0.37%
[2]; 12 month, 525600 min
  Content: 99.6%
[2]; 18 month
  Appearance: Off-white powder
  Crystal Form: IIb
  Loss on Drying: 0.31%
  Related Substances Max Unknown Single Impurity: 0.07%
  Related Substances Total Impurity: 0.39%
[2]; 18 month, 789120 min
  Content: 99.6%
[2]; 24 month
  Appearance: Off-white powder
  Crystal Form: IIb
  Loss on Drying: 0.32%
  Related Substances Max Unknown Single Impurity: 0.08%
  Related Substances Total Impurity: 0.39%
[2]; 24 month, 1.0512e+06 min
  Content: 99.7%
[2]
  stability study result in words: good chemical stability
[3]; after 3 days, XRPD, FIG. 5 to FIG. 6
  crystal form of the active pharmaceutical ingredient in the final gel formulation: exclusively in form IIb
